Experimental data published in patent US9914724B2, “C-aryl glycosid derivatives, pharmaceutical composition, preparation process and uses thereof” (SHANGHAI DE NOVO PHARMATECH CO. LTD., priority 2014, dated 2018).

Assays:
[1] = molecular target: T1, SGLT-2 (Homo sapiens, UniProt P31639); experiment: [14C]-AMG absorption in stable SGLT2 expressing Flp-in CHO cells (SGLT-2 activity screening assay); assay type: cell-based; settings: 14C-AMG uptake, 37° C. 1 h, 1% DMSO
T1 sequence (P31639 1-672): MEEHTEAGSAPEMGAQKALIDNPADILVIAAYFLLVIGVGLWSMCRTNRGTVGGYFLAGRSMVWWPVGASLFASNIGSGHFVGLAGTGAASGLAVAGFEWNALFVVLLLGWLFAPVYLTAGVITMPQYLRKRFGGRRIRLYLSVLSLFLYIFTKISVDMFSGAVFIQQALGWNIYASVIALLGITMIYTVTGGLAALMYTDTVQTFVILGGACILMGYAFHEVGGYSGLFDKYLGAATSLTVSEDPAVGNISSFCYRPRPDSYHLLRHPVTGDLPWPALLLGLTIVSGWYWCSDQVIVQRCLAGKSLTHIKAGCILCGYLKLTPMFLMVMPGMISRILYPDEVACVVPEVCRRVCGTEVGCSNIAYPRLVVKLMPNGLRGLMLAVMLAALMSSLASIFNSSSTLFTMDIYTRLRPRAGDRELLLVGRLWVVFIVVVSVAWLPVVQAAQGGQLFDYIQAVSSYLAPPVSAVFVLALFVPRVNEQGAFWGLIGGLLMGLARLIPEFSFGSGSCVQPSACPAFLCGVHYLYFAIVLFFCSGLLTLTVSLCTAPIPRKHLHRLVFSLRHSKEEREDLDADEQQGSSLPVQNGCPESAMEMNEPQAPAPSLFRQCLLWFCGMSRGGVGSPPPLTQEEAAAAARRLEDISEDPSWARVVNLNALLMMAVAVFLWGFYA
Description: (§1) Example 1: [^14C]-AMG Absorption in Stable SGLT1 and SGLT2 Expressing Flp-in CHO Cells (SGLT-1 and SGLT-2 Activity Screening Assay)
(§2) SGLT-1 and SGLT-2 cDNA clones were purchased from OriGene. After sequencing verification, the expression vectors were constructed based on pcDNA5/FRT using conventional molecular biology method. The expression vector was transfected into Flp-in CHO cells using Lipofectamin 2000. The transfected cells were subject hygromycin selection. The single clones of cells were selected by serial dilutions 4-5 weeks after transfection. The expression of SGLT-1 ? SGLT-2 were confirmed by RT-PCR and functional assay and cell line with strong signal was selected for subsequent study.
(§3) Culture of stable SGLT-1 and SGLT-2 expressing Flp-in CHO cell line: the culture media contain F12 medium (Invitrogen), 500 μg/ml hygromycin (Calbiochem) and 10% FBS (Invitrogen). Upon 80% confluency, the cells in the T75 flask were washed three times with PBS (Invitrogen), and 5 mL of Trpsin-EDTA solution (Invitrogen) was then added. The flask was gently rotated so that all the cells were submerged in the digestion solution. After the cells detach, 10 mL of culture medium was added and single cell suspension was prepared by pipetting up and down. The cell concentration was adjusted to 3×10^5/mL, 100 μL/well was added onto clear bottom 96-well plate (Corning).
(§4) The cells were ready for absorption assay once they attached after overnight culture. 12 h after cell plating, the cells were washed once with 150 μL/well absorption solution KRH-NMG (120 mM NMG, 4.7 mM KCl, 1.2 mM MgCl2, 2.2 mM CaCl2, 10 mM HEPES, pH 7.4 1 mM Tris). The solution was then removed from the well. 2.5 μCi/mL ^14C labeled AMG (PerkinElmer) Buffer KRH-Na+ (120 mM NaCl, 4.7 mM KCl, 1.2 mM MgCl2, 2.2 mM CaCl2, 10 mM HEPES, pH 7.4 1 mM Tris) was added at […] after washing with Buffer KRH-Na+ and KRH-NMG. The corresponding compound I was immediately added at 5 μL/well, ensuring the concentration of Dimethyl Sulfoxide was 1% (v/v). The plate was subsequently incubated at 37° C. for 1 h, after which 150 μL of ice cold wash buffer (120 mM NaCl, 4.7 mM KCl, 1.2 mM MgCl2, 2.2 mM CaCl2, 10 mM HEPES, 0.5 mM phlorizin, pH 7.4 1 mM Tris) was immediately added to terminate the reaction. Each well was washed three times with wash buffer and finally the solution was removed. Caution was taken to avoid cell detachment during the procedure. 20 μL/well of Lysis Buffer (0.1 mM NaOH) was added, the plate was vortexed at 900 rpm for 5 min. 80 μL/well of scintillation solution Microsint40 was added, and vortexed at 900 rpm for 5 min. The radioactivity was assayed using MicroBeta Trilux (PerkinElmer). The data was analyzed and IC50 of the compounds was calculated using XL-fit software.

[2] = molecular target: T2, SGLT-1 (Homo sapiens, UniProt P13866); experiment: [14C]-AMG absorption in stable SGLT1 expressing Flp-in CHO cells (SGLT-1 activity screening assay); assay type: cell-based; settings: 14C-AMG uptake, 37° C. 1 h, 1% DMSO
T2 sequence (P13866 1-664): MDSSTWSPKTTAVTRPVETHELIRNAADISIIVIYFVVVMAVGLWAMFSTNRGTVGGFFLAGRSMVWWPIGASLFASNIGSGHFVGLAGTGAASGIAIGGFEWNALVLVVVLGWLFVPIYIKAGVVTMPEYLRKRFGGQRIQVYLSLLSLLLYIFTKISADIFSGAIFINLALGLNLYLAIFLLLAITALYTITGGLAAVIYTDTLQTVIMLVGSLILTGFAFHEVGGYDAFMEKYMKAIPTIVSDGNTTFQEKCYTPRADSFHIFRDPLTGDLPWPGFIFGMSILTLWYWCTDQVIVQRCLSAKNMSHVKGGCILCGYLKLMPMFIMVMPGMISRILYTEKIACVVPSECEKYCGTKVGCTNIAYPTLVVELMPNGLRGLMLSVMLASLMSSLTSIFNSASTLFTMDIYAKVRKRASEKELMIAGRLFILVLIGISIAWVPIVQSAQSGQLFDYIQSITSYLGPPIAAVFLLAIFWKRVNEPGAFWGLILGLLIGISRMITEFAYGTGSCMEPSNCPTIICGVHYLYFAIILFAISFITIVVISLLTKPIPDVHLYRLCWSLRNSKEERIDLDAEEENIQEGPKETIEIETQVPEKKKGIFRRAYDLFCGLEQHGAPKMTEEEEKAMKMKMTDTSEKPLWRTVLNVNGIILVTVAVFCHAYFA
Description: as §1, §2, §3, §4

Row | SMILES | IC50 [1] | IC50 [2]
1 | CC1(C)OC(COc2ccc(Cc3cc([C@@H]4O[C@H](CO)[C@@H](O)[C@H](O)[C@H]4O)ccc3Cl)cc2)c2ccccc21 (stereo partly drawn) [Compound I-63, (2S,3R,4R,5S,6R)-2-(4-chloro-3-(4-((3,3-dimethyl-1,3-dihydroisobenzofuran-1-yl)methoxy)benzyl)phenyl)-6-(hydroxymethyl)tetrahydro-2H-pyran-3,4,5-triol] | 5.6 nM | –
2 | OC[C@H]1O[C@@H](c2ccc(Cl)c(Cc3ccc(OCC4Cc5cccc(F)c5O4)cc3)c2)[C@H](O)[C@@H](O)[C@@H]1O (stereo partly drawn) [Compound I-34, (2S,3R,4R,5S,6R)-2-(4-chloro-3-(4-((7-fluoro-2,3-dihydrobenzofuran-2-yl)methoxy)benzyl)phenyl)-6-(hydroxymethyl)tetrahydro-2H-pyran-3,4,5-triol] | 4.5 nM | 141 nM
3 | OC[C@H]1O[C@@H](c2ccc(Cl)c(Cc3ccc(OCc4cc5cccc(F)c5o4)cc3)c2)[C@H](O)[C@@H](O)[C@@H]1O [Compound I-10, (2S,3R,4R,5S,6R)-2-(4-chloro-3-(4-((7-fluorobenzofuran-2-yl)methoxy)benzyl)phenyl)-6-(hydroxymethyl)tetrahydro-2H-pyran-3,4,5-triol] | 12 nM | 444 nM
4 | Cc1ccc([C@@H]2O[C@H](CO)[C@@H](O)[C@H](O)[C@H]2O)cc1Cc1ccc(OCC2(C)OCc3ccccc32)cc1 (stereo partly drawn) [Compound I-112, (2S,3R,4R,5S,6R)-2-(3-(4-((1-methyl-1,3-dihydroisobenzofuran-1-yl)methoxy)benzyl)-4-methylphenyl)-6-(hydroxymethyl)tetrahydro-2H-pyran-3,4,5-triol] | 8 nM | 179 nM
5 | COc1ccc([C@@H]2O[C@H](CO)[C@@H](O)[C@H](O)[C@H]2O)cc1Cc1ccc(OCC2Cc3ccccc3O2)cc1 (stereo partly drawn) [Compound I-29, (2S,3R,4R,5S,6R)-2-(3-(4-((2,3-dihydrobenzofuran-2-yl)methoxy)benzyl)-4-methoxyphenyl)-6-(hydroxymethyl)tetrahydro-2H-pyran-3,4,5-triol] | 59 nM | 220 nM
6 | Cc1ccc([C@@H]2O[C@H](CO)[C@@H](O)[C@H](O)[C@H]2O)cc1Cc1ccc(OCC2(C)Cc3ccccc3O2)cc1 (single isomer, unassigned) [Compound I-111] | > 2000 nM | 34400 nM
7 | Cc1ccc([C@@H]2O[C@H](CO)[C@@H](O)[C@H](O)[C@H]2O)cc1Cc1ccc(OCC2(C)Cc3ccccc3O2)cc1 (single isomer, unassigned) [Compound I-110] | 12.9 nM | 244 nM
8 | OC[C@H]1O[C@@H](c2ccc(Cl)c(Cc3ccc(OCc4cc5ccccc5o4)c(F)c3)c2)[C@H](O)[C@@H](O)[C@@H]1O [Compound I-11, (2S,3R,4R,5S,6R)-2-(3-(4-(benzofuran-2-ylmethoxy)-3-fluorobenzyl)-4-chlorophenyl)-6-(hydroxymethyl)tetrahydro-2H-pyran-3,4,5-triol] | 23 nM | 2540 nM
9 | OC[C@H]1O[C@@H](c2ccc(Cl)c(Cc3ccc(OCC4Cc5c(F)cccc5O4)cc3)c2)[C@H](O)[C@@H](O)[C@@H]1O (stereo partly drawn) [Compound I-31, (2S,3R,4R,5S,6R)-2-(4-chloro-3-(4-((4-fluoro-2,3-dihydrobenzofuran-2-yl)methoxy)benzyl)phenyl)-6-(hydroxymethyl)tetrahydro-2H-pyran-3,4,5-triol] | 6.5 nM | 365 nM
10 | CC1(COc2ccc(Cc3cc([C@@H]4O[C@H](CO)[C@@H](O)[C@H](O)[C@H]4O)ccc3Cl)cc2)Cc2ccccc2O1 (single isomer, unassigned) [Compound I-107] | > 2000 nM | 31400 nM
11 | OC[C@H]1O[C@@H](c2ccc(Cl)c(Cc3ccc(OC[C@@H]4OCc5ccccc54)cc3)c2)[C@H](O)[C@@H](O)[C@@H]1O [Compound I-38, (2S,3R,4R,5S,6R)-2-(4-chloro-3-(4-(((R)-1,3-dihydroisobenzofuran-1-yl)methoxy)benzyl)phenyl)-6-(hydroxymethyl)tetrahydro-2H-pyran-3,4,5-triol] | 1 nM | 608 nM
12 | OC[C@H]1O[C@@H](c2ccc(F)c(Cc3ccc(OCC4Cc5ccccc5O4)cc3)c2)[C@H](O)[C@@H](O)[C@@H]1O (stereo partly drawn) [Compound I-21, (2S,3R,4R,5S,6R)-2-(3-(4-((2,3-dihydrobenzofuran-2-yl)methoxy)benzyl)-4-fluorophenyl)-6-(hydroxymethyl)tetrahydro-2H-pyran-3,4,5-triol] | 13 nM | 4300 nM
13 | OC[C@H]1O[C@@H](c2ccc(Cl)c(Cc3ccc(OC[C@@H]4Cc5ccccc5O4)cc3)c2)[C@H](O)[C@@H](O)[C@@H]1O [Compound I-23, (2S,3R,4R,5S,6R)-2-(4-chloro-3-(4-(((S)-2,3-dihydrobenzofuran-2-yl)methoxy)benzyl)phenyl)-6-(hydroxymethyl)tetrahydro-2H-pyran-3,4,5-triol] | 3 nM | 301 nM
14 | OC[C@H]1O[C@@H](c2cccc(Cc3ccc(OCc4cc5ccccc5o4)cc3)c2)[C@H](O)[C@@H](O)[C@@H]1O [Compound I-6, (2S,3R,4R,5S,6R)-2-(3-(4-(benzofuran-2-ylmethoxy)benzyl)phenyl)-6-(hydroxymethyl)tetrahydro-2H-pyran-3,4,5-triol] | 36 nM | –
15 | OC[C@H]1O[C@@H](c2cccc(Cc3ccc(OCC4Cc5ccccc5O4)cc3)c2)[C@H](O)[C@@H](O)[C@@H]1O (stereo partly drawn) [Compound I-30, (2S,3R,4R,5S,6R)-2-(3-(4-((2,3-dihydrobenzofuran-2-yl)methoxy)benzyl)phenyl)-6-(hydroxymethyl)tetrahydro-2H-pyran-3,4,5-triol] | 125 nM | 9370 nM
16 | OC[C@H]1O[C@@H](c2ccc(Cl)c(Cc3ccc(OCCC4Cc5ccccc5O4)cc3)c2)[C@H](O)[C@@H](O)[C@@H]1O (stereo partly drawn) [Compound I-60, (2S,3R,4R,5S,6R)-2-(4-chloro-3-(4-(2-(2,3-dihydrobenzofuran-2-yl)ethoxy)benzyl)phenyl)-6-(hydroxymethyl)tetrahydro-2H-pyran-3,4,5-triol] | 38 nM | –
